According to patent US20210382058A1, “PATIENT SELECTION FOR TREATMENT OF MYC POSITIVE CANCERS WITH INDENOISOQUINOLINES” (Purdue Research Foundation, priority 2020, published 2021):
Read-outs that look alike come from different tables or passages of the source.

Key:
[1] = test system: MYC protein expression in MCF-7 breast cancer cells; test: Western blotting of MYC protein level in MCF-7 cells; format: cell-based, human; conditions: Homo sapiens, MCF7; western blotting, MCF-7 cells, 0.5, 1, 2, and 4 μM, 24 hours; read-out: MYC Inhibition
Experimental: MCF-7 cells were incubated with each compound at four concentrations (0.5, 1, 2, and 4 μM) for 24 hours, and the MYC protein levels were measured (FIG. 3A and FIGS. 12 A to 12 F).
Cells were incubated at 37° C. with 5% CO2.
The gels were cut into strips that contained the proteins of interest and transferred to nitrocellulose membrane (I323002, Invitrogen) using an iBlot 2 Dry Transfer Device (Invitrogen). Immunoblotting was carried out according to standard procedures using the ECL detection method. The membrane was hybridized with the following antibodies: monoclonal anti-MYC (1:1000 dilution; rabbit, Cell Signaling Technology), monoclonal anti-GAPDH (1:2000 dilution; rabbit, Cell Signaling Technology).

NCI-60 cancer cell lines = test: NCI-60 cancer cell line drug screen (GI50, MGM); format: cell-based, human; conditions: Homo sapiens
Experimental: Cancer cells were incubated with the test compounds at five concentrations ranging from 100 μM to 10 nM for 48 h. […] The approximate average of GI50 values across the entire panel of NCI-60 cancer cell lines for each compound was recorded as the MGM value.

SMILES: COc1cc2c3c(n(CCCn4ccnc4)c(=O)c2cc1OC)-c1cc2c(cc1C3=O)OCO2 [Compound 42]
- minimal effective concentration [1]: 0.5 to 1 µM
- GI50 (NCI-60 cancer cell lines; 786-0, Renal Cancer, 786-0, read-out: Antiproliferative Activities [GI50 (μM)]): < 0.01 µM
- GI50 (NCI-60 cancer cell lines; A498, Renal Cancer, A498, read-out: Antiproliferative Activities [GI50 (μM)]): 7.17 µM
- GI50 (NCI-60 cancer cell lines; A549, Non-Small Cell Lung Cancer, A549/ATCC, read-out: Antiproliferative Activities [GI50 (μM)]): 10.5 µM
- GI50 (NCI-60 cancer cell lines; ACHN, Renal Cancer, ACHN, read-out: Antiproliferative Activities [GI50 (μM)]): < 0.01 µM
- GI50 (NCI-60 cancer cell lines; CAKI-1, Renal Cancer, CAKI-1, read-out: Antiproliferative Activities [GI50 (μM)]): 0.32 µM
- GI50 (NCI-60 cancer cell lines; CCRF-CEM, Leukemia, CCRF-CEM, read-out: Antiproliferative Activities [GI50 (μM)]): < 0.01 µM
- GI50 (NCI-60 cancer cell lines; COLO 205, Colon Cancer, COLO 205, read-out: Antiproliferative Activities [GI50 (μM)]): > 100 µM
- GI50 (NCI-60 cancer cell lines; DU-145, Prostate Cancer, DU-145, read-out: Antiproliferative Activities [GI50 (μM)]): < 0.01 µM
- GI50 (NCI-60 cancer cell lines; EKVX, Non-Small Cell Lung Cancer, EKVX, read-out: Antiproliferative Activities [GI50 (μM)]): 70.7 µM
- GI50 (NCI-60 cancer cell lines; HCC 2998, Colon Cancer, HCC-2998, read-out: Antiproliferative Activities [GI50 (μM)]): 29.3 µM
- GI50 (NCI-60 cancer cell lines; HCT-15, Colon Cancer, HCT-15, read-out: Antiproliferative Activities [GI50 (μM)]): > 100 µM
- GI50 (NCI-60 cancer cell lines; HCT-116, Colon Cancer, HCT-116, read-out: Antiproliferative Activities [GI50 (μM)]): 0.17 µM
- GI50 (NCI-60 cancer cell lines; HL-60, read-out: Antiproliferative Activities [GI50 (μM)]): 0.02 µM
- GI50 (NCI-60 cancer cell lines; HOP-62, Non-Small Cell Lung Cancer, HOP-62, read-out: Antiproliferative Activities [GI50 (μM)]): < 0.01 µM
- GI50 (NCI-60 cancer cell lines; HOP-92, Non-Small Cell Lung Cancer, HOP-92, read-out: Antiproliferative Activities [GI50 (μM)]): 0.19 µM
- GI50 (NCI-60 cancer cell lines; HT-29, Colon Cancer, HT29, read-out: Antiproliferative Activities [GI50 (μM)]): > 100 µM
- GI50 (NCI-60 cancer cell lines; Hs-578T, Breast Cancer, HS 578T, read-out: Antiproliferative Activities [GI50 (μM)]): 54.2 µM
- GI50 (NCI-60 cancer cell lines; IGROV-1, Ovarian Cancer, IGROV1, read-out: Antiproliferative Activities [GI50 (μM)]): 6.72 µM
- GI50 (NCI-60 cancer cell lines; K562, Leukemia, K-562, read-out: Antiproliferative Activities [GI50 (μM)]): 1.49 µM
- GI50 (NCI-60 cancer cell lines; KM12, Colon Cancer, KM12, read-out: Antiproliferative Activities [GI50 (μM)]): > 100 µM
- GI50 (NCI-60 cancer cell lines; LOX IMVI, Melanoma, LOX IMVI, read-out: Antiproliferative Activities [GI50 (μM)]): 0.06 µM
- GI50 (NCI-60 cancer cell lines; Leukemia, SR, read-out: Antiproliferative Activities [GI50 (μM)]): < 0.01 µM
- GI50 (NCI-60 cancer cell lines; MCF7, Breast Cancer, MCF7, read-out: Antiproliferative Activities [GI50 (μM)]): < 0.01 µM
- GI50 (NCI-60 cancer cell lines; MDA-MB-231, Breast Cancer, MDA-MB-231/ATCC, read-out: Antiproliferative Activities [GI50 (μM)]): 77.8 µM
- GI50 (NCI-60 cancer cell lines; MDA-MB-435, Melanoma, MDA-MB-435, read-out: Antiproliferative Activities [GI50 (μM)]): > 100 µM
- GI50 (NCI-60 cancer cell lines; MOLT-4, Leukemia, MOLT-4, read-out: Antiproliferative Activities [GI50 (μM)]): < 0.01 µM
- GI50 (NCI-60 cancer cell lines; Malme-3M, Melanoma, MALME-3M, read-out: Antiproliferative Activities [GI50 (μM)]): 1.6 µM
- GI50 (NCI-60 cancer cell lines; Melanoma, M14, read-out: Antiproliferative Activities [GI50 (μM)]): < 0.01 µM
- GI50 (NCI-60 cancer cell lines; NCI-H23, Non-Small Cell Lung Cancer, NCI-H23, read-out: Antiproliferative Activities [GI50 (μM)]): 0.09 µM
- GI50 (NCI-60 cancer cell lines; NCI-H226, Non-Small Cell Lung Cancer, NCI-H226, read-out: Antiproliferative Activities [GI50 (μM)]): 0.37 µM
- GI50 (NCI-60 cancer cell lines; NCI-H322M, Non-Small Cell Lung Cancer, NCI-H322M, read-out: Antiproliferative Activities [GI50 (μM)]): > 100 µM
- GI50 (NCI-60 cancer cell lines; NCI-H460, Non-Small Cell Lung Cancer, NCI-H460, read-out: Antiproliferative Activities [GI50 (μM)]): < 0.01 µM
- GI50 (NCI-60 cancer cell lines; NCI-H522, Non-Small Cell Lung Cancer, NCI-H522, read-out: Antiproliferative Activities [GI50 (μM)]): < 0.01 µM
- GI50 (NCI-60 cancer cell lines; OVCAR-3, Ovarian Cancer, OVCAR-3, read-out: Antiproliferative Activities [GI50 (μM)]): 16.4 µM
- GI50 (NCI-60 cancer cell lines; OVCAR-4, Ovarian Cancer, OVCAR-4, read-out: Antiproliferative Activities [GI50 (μM)]): > 100 µM
- GI50 (NCI-60 cancer cell lines; OVCAR-5, Ovarian Cancer, OVCAR-5, read-out: Antiproliferative Activities [GI50 (μM)]): > 100 µM
- GI50 (NCI-60 cancer cell lines; OVCAR-8, Ovarian Cancer, OVCAR-8, read-out: Antiproliferative Activities [GI50 (μM)]): 1.03 µM
- GI50 (NCI-60 cancer cell lines; Ovarian Cancer, NCl/ADR-RES, read-out: Antiproliferative Activities [GI50 (μM)]): 0.35 µM
- GI50 (NCI-60 cancer cell lines; Prostate Cancer, PC-3, read-out: Antiproliferative Activities [GI50 (μM)]): 34.9 µM
- GI50 (NCI-60 cancer cell lines; RPMI-8226, Leukemia, RPMI-8226, read-out: Antiproliferative Activities [GI50 (μM)]): < 0.01 µM
- GI50 (NCI-60 cancer cell lines; RXF 393, Renal Cancer, RXF 393, read-out: Antiproliferative Activities [GI50 (μM)]): 8 µM
- GI50 (NCI-60 cancer cell lines; Renal Cancer, U0-31, read-out: Antiproliferative Activities [GI50 (μM)]): 0.03 µM
- GI50 (NCI-60 cancer cell lines; SF-295, CNS Cancer, SF-295, read-out: Antiproliferative Activities [GI50 (μM)]): < 0.01 µM
- GI50 (NCI-60 cancer cell lines; SF-539, CNS Cancer, SF-539, read-out: Antiproliferative Activities [GI50 (μM)]): < 0.01 µM
- GI50 (NCI-60 cancer cell lines; SK-MEL-2, Melanoma, SK-MEL-2, read-out: Antiproliferative Activities [GI50 (μM)]): > 100 µM
- GI50 (NCI-60 cancer cell lines; SK-MEL-5, Melanoma, SK-MEL-5, read-out: Antiproliferative Activities [GI50 (μM)]): 0.22 µM
- GI50 (NCI-60 cancer cell lines; SK-MEL-28, Melanoma, SK-MEL-28, read-out: Antiproliferative Activities [GI50 (μM)]): > 100 µM
- GI50 (NCI-60 cancer cell lines; SK-OV-3, Ovarian Cancer, SK-OV-3, read-out: Antiproliferative Activities [GI50 (μM)]): < 0.01 µM
- GI50 (NCI-60 cancer cell lines; SN12C, Renal Cancer, SN12C, read-out: Antiproliferative Activities [GI50 (μM)]): < 0.01 µM
- GI50 (NCI-60 cancer cell lines; SNB-19, CNS Cancer, SNB-19, read-out: Antiproliferative Activities [GI50 (μM)]): < 0.01 µM
- GI50 (NCI-60 cancer cell lines; SNB-75, CNS Cancer, SNB-75, read-out: Antiproliferative Activities [GI50 (μM)]): 0.23 µM
- GI50 (NCI-60 cancer cell lines; SW-620, Colon Cancer, SW-620, read-out: Antiproliferative Activities [GI50 (μM)]): 0.06 µM
- GI50 (NCI-60 cancer cell lines; T47D, Breast Cancer, T-47D, read-out: Antiproliferative Activities [GI50 (μM)]): < 0.01 µM
- GI50 (NCI-60 cancer cell lines; TK-10, Renal Cancer, TK-10, read-out: Antiproliferative Activities [GI50 (μM)]): 73.7 µM
- GI50 (NCI-60 cancer cell lines; U-251, CNS Cancer, U251, read-out: Antiproliferative Activities [GI50 (μM)]): < 0.01 µM
- GI50 (NCI-60 cancer cell lines; UACC-62, Melanoma, UACC-62, read-out: Antiproliferative Activities [GI50 (μM)]): < 0.01 µM
- GI50 (NCI-60 cancer cell lines; UACC-257, Melanoma, UACC-257, read-out: Antiproliferative Activities [GI50 (μM)]): > 100 µM
